Biological target: T1, Angiotensin II Receptor (Bos taurus, UniProt P25104)
T1 construct: The brownish tissue forming the adrenal cortex is scraped off and finely minced with scissors before homogenization; tissue Maxwell-Cohen (local slaughter house); host or cells: beef adrenal cortex, microsomal membranes (100,000×g pellet)
T1 sequence (P25104 1-359): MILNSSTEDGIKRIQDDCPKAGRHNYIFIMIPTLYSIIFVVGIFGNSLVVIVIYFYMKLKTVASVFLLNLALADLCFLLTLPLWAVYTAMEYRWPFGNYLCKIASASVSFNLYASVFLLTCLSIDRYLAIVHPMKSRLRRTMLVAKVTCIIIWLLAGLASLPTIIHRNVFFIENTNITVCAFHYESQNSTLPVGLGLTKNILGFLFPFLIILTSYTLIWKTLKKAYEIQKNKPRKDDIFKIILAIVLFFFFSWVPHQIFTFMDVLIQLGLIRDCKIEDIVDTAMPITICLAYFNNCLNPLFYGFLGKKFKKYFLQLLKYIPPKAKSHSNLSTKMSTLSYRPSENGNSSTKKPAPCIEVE
Assay: Receptor binding assay: displacement of [125I](Sar1,Ile8)AngII from beef adrenal cortex microsomal membranes
Description: Beef adrenals are obtained from a local slaughter house (Maxwell-Cohen). [^125 I](Sar^1,-Ile^8)AngII, S.A. 2200 Ci/mmole, is purchased from Dupont (NEN®, Boston, Mass.). All unlabeled AngII analogs, dimethylsulfoxide (DMSO), nucleotides, bovine serum albumin (BSA) are purchased from Sigma Chemical Co., St. Louis, Mo. U.S.A.
Approximately sixteen (16) to twenty (20) beef adrenal glands are processed as follows: fresh adrenal glands received on crushed ice are cleaned of fatty tissues and the tough membranes encapsulating the glands are removed and discarded. The brownish tissue forming the adrenal cortex is scraped off and finely minced with scissors before homogenization. Care is taken to avoid contamination with medullary tissue during dissection. The scraped cortices are suspended in twenty volumes of an ice-cold buffer medium consisting of 10 mM Tris.HCl (pH 7.4 at 22° C.) and containing 1.0 mM EDTA and 0.2M sucrose. Unless otherwise indicated, all subsequent operation are done at 4° C. […] The homogenate is centrifuged first at low speed (3,000×g) for 10 min. […] A 100 ul aliquot is withdrawn and the protein content of the preparation is determined by the Lowry's method (Lowry, O. H., Rosebrough, N. F., Farr, A. L. and Randall, R. J., Protein measurement with Folin phenol reagent. J. Biol. Chem., […], 265-275, 1951). […]

IC50: 130 nM
SMILES: CCCCc1nc2ccc(COc3ccccc3)cc2c(=O)n1Cc1ccc(-c2ccccc2-c2nnn[nH]2)cc1 [Example 36, 2-Butyl-6-(phenoxymethyl)-3-[[2'-(1H-tetrazol-5-yl) [1,1'-biphenyl]-4-yl]methyl]-4(3H)-quinazolinone]

Reference: US5284852A, “Angiotensin II receptor blocking 2,3,6-substituted quinazolinones” (American Cyanamid Company, priority 1993, dated 1994)
